Reference: ChEMBL document CHEMBL1201862, “PubChem BioAssay data set” (2004)
Calls of active or inactive are those of the source.

Columns and labels:
[1] = target: T1, Alkaline phosphatase, tissue-nonspecific isozyme (Homo sapiens, UniProt P05186); experiment: potency against alkaline phosphatase TNAP – biochemical, luminescent, dose response, SAR follow-up (AID 1056)
T1 sequence (P05186 whole entry): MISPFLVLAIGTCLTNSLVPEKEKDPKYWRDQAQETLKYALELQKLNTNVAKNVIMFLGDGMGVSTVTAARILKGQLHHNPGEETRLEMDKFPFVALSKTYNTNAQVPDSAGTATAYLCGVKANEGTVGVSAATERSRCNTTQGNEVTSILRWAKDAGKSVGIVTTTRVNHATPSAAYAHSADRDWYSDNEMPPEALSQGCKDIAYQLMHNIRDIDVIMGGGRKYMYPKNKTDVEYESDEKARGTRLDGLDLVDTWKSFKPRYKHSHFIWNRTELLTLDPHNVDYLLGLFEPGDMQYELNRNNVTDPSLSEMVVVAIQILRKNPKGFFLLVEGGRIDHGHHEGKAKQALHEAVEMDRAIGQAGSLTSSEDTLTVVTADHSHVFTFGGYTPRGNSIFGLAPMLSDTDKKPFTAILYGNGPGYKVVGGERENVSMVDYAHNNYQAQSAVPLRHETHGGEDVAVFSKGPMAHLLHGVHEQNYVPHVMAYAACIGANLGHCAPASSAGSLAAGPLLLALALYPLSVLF

[2] = target: Alkaline phosphatase, placental type (Homo sapiens, UniProt P05187); experiment: human placental alkaline phosphatase inhibition – biochemical, luminescence, confirmation (AID 1512); type: functional
[3] = target: Glyceraldehyde-3-phosphate dehydrogenase (Homo sapiens, UniProt P04406)
INS1 = experiment: INS-1E survival protection against cytokine death – cell-based, luminescence, retest, dose response (AID 449756); type: functional; details: Rattus norvegicus;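 also: cell death triggered by IL-1 beta plus TNF-alpha plus IFN-gamma mixture; protective hits raise ATP signal compared with cytokine alone wells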
[4] = luciferase reporter signal suppression in cells – H4 neuroglioma cells, luminescence, dose response (AID 1990); type: functional, cell-based
[5] = alpha-synuclein stem-loop luciferase translation blockers – H4 neuroglioma cells, luminescence, confirmation (AID 1988); type: functional, cell-based
[6] = Luminescence Cell-Based Dose Response HTS to Identify Inhibitors of 5'UTR Stem-Loop Driven Prion Protein mRNA Translation in H4 Neuroglioblastoma Cells. [Related pubchem assays: 1827 (Project Summary), 1813 (Primary HTS)]; type: functional
Caspase-3 = target: T2, Caspase-3 (Homo sapiens, UniProt P42574); experiment: activation of caspase-3 zymogen – biochemical, absorbance, dose response (AID 489014)
T2 sequence (P42574 whole entry): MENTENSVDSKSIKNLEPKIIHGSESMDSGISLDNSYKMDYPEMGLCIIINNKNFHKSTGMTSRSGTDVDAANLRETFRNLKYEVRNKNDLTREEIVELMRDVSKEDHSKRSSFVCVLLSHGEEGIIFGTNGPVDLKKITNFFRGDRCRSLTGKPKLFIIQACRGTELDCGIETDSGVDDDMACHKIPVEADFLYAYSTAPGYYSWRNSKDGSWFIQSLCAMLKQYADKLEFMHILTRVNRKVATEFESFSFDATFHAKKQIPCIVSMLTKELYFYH

Exodeoxyribonuclease V = target: T3, Exodeoxyribonuclease V (Escherichia coli (strain K12), UniProt P04993+P07648+P08394); experiment: RecBCD inhibition via phage-restricted bacterial growth – absorbance, V66 E. coli, mutant T4 phage, counter-screen for AddAB inhibitor project, dose response (AID 492957); type: functional, cell-based, Escherichia coli str. K-12 substr. MG1655
T3 sequence (P04993 whole entry): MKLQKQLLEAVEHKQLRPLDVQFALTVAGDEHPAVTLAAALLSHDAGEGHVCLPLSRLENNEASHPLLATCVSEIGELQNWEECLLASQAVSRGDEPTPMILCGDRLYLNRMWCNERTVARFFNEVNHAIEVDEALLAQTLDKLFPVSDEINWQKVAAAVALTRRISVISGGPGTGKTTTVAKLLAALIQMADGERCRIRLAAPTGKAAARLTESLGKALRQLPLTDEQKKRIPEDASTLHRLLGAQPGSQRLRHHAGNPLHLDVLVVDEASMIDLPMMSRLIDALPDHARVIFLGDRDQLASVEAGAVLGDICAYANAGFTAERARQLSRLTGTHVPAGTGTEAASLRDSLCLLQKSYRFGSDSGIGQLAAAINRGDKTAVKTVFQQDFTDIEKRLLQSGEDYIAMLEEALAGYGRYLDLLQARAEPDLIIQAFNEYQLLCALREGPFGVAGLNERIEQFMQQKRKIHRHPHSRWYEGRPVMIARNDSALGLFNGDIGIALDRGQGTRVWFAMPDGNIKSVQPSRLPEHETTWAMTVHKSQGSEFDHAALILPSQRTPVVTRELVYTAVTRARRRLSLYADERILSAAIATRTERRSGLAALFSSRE
T3 sequence (P07648 whole entry): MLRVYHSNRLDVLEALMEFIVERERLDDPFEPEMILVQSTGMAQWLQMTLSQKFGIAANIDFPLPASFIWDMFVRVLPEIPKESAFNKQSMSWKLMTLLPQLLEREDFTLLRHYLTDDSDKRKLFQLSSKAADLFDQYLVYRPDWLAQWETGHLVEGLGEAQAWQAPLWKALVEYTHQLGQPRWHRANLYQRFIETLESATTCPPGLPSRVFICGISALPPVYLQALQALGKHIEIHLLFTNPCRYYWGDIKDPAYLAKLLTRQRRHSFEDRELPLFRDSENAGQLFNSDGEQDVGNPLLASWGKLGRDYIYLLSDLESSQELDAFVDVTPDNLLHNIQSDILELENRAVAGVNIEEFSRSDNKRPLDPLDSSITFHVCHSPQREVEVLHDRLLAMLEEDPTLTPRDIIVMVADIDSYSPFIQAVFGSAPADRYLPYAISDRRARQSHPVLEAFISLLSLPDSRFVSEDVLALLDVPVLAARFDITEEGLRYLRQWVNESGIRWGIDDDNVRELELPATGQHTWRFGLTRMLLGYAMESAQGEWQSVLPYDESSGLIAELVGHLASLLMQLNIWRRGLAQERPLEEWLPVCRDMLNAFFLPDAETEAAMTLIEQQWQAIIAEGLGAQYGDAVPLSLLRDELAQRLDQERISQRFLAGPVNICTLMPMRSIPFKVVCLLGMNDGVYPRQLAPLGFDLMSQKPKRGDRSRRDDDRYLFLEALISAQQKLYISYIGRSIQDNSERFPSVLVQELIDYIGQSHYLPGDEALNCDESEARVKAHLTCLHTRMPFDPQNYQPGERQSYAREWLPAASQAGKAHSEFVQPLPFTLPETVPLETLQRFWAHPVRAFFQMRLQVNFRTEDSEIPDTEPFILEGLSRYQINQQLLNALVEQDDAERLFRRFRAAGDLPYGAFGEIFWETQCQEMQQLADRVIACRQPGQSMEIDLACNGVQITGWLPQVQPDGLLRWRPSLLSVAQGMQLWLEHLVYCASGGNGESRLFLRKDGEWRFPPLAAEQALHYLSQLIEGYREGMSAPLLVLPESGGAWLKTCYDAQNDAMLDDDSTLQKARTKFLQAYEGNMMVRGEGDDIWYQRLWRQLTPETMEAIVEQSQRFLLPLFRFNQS
T3 sequence (P08394 whole entry): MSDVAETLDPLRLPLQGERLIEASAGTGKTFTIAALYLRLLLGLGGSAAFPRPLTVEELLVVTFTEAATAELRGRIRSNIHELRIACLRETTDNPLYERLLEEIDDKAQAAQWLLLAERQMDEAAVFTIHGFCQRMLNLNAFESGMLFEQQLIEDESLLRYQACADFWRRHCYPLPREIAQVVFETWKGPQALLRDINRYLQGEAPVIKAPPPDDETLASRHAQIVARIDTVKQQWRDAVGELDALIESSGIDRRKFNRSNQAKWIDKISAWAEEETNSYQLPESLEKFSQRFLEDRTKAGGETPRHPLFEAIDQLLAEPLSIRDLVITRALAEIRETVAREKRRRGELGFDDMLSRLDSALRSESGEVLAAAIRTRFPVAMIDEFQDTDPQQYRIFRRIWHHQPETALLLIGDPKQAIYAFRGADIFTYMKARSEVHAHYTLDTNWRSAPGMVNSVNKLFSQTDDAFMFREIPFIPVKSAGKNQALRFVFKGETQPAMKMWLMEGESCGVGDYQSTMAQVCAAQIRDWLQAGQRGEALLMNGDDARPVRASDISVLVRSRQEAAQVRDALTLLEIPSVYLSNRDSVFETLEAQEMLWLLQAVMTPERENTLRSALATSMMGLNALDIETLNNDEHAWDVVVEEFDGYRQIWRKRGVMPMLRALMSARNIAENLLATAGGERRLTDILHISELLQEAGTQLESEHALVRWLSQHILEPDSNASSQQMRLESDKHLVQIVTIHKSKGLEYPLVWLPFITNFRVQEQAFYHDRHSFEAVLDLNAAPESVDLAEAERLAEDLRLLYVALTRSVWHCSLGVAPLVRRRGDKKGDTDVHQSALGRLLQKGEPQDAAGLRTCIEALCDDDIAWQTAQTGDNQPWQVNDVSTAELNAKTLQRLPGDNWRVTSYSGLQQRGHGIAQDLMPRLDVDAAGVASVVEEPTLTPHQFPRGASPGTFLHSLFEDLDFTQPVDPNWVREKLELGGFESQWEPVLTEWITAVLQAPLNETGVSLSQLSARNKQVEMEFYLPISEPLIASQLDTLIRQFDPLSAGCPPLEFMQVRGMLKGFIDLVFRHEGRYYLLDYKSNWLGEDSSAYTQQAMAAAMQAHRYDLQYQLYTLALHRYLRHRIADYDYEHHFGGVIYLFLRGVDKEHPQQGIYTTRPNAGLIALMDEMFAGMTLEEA

Caspase-7 = Caspase-7 (Homo sapiens, UniProt P55210); experiment: activation of caspase-7 zymogen – biochemical, absorbance, counter-screen for procaspase-3 activator project, dose response (AID 489013)
[7] = Counterscreen for AddAB inhibitors: absorbance-based bacterial cell-based high throughput dose response assay for inhibitors of bacterial viability. [Related pubchem assays (depositor defined):AID435030, AID449728, AID449731, AID488942, AID488955, AID488956]; type: functional
H9c2 = experiment: cells; type: functional, cell-based; details: Rattus norvegicus, H9c2, Myocardium;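 also: confirmatory concentration-response retest of ultra-high-throughput screening hits for modulation of myocardial damage; cell death induced by hydrogen peroxide oxidative stress; compound pretreatment for 60 min then peroxide exposure for 2 h; potency is for protecting the cells against peroxide damage rather than for killing them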
HEK293 [8] = experiment: inhibition of NOD1-driven NF-kB reporter – cell-based, luminescence, uHTS, primary screen (AID 1578); type: functional; details: Homo sapiens
HEK293 [9] = experiment: cells; type: functional, cell-based; details: Homo sapiens
HEK293 [10] = experiment: cells; type: functional, cell-based; details: Homo sapiens; remark: listed apart in the source
HEK293 [11] = experiment: cells; type: functional, cell-based; details: Homo sapiens; remark: listed apart in the source
[12] = target: Nucleotide-binding oligomerization domain-containing protein 2 (Homo sapiens, UniProt Q9HC29); experiment: inhibition of NOD2-driven NF-kB reporter – cell-based, luminescence, uHTS, HEK293 (AID 1566); type: functional
HEK293 [13] = experiment: NOD2 signaling inhibitors in MDP-stimulated cells, cell-based, uHTS, luminescence (AID 2001); type: functional; details: Homo sapiens
[14] = target: T4, Heat shock factor protein 1 (Mus musculus, UniProt P38532); experiment: enhancement of HSF1-driven luciferase signal – cell-based, NIH3T3, luminescence, dose retest, confirmation (AID 435004); type: functional;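 also: stress induced by proteasome inhibitor MG132 added 30 min after compound; luciferase reporter driven by HSF1 response element in NIH3T3 cells; actives raise luminescence as potentiators of the MG132 stress response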
T4 sequence (P38532 whole entry): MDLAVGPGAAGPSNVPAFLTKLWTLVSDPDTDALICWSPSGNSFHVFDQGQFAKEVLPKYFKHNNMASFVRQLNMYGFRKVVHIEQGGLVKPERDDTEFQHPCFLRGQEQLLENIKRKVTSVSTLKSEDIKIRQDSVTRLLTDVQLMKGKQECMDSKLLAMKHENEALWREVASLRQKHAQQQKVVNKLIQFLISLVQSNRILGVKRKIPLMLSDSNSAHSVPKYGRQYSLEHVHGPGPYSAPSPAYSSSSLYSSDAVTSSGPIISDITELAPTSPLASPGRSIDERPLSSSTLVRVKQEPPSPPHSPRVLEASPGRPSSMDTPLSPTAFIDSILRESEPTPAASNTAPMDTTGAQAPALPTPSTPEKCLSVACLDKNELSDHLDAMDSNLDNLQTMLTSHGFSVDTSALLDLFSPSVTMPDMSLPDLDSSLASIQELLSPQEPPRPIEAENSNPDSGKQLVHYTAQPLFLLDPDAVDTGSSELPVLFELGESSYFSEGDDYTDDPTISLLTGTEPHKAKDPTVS

Chain of Alkaline phosphatase, placental type (P05187 whole entry): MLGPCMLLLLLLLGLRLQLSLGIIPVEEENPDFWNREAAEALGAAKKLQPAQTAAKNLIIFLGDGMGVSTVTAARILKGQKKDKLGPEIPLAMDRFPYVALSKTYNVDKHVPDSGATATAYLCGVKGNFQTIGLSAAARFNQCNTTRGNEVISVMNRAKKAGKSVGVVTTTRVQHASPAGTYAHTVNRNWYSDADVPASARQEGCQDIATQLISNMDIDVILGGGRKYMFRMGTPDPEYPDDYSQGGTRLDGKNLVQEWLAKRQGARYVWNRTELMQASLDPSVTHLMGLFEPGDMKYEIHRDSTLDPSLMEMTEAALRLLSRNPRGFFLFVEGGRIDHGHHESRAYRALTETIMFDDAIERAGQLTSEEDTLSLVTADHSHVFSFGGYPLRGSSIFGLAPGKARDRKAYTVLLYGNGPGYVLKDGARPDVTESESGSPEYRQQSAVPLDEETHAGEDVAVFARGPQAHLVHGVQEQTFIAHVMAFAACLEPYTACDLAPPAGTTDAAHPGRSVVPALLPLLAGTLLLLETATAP
Chain of Glyceraldehyde-3-phosphate dehydrogenase (P04406 whole entry): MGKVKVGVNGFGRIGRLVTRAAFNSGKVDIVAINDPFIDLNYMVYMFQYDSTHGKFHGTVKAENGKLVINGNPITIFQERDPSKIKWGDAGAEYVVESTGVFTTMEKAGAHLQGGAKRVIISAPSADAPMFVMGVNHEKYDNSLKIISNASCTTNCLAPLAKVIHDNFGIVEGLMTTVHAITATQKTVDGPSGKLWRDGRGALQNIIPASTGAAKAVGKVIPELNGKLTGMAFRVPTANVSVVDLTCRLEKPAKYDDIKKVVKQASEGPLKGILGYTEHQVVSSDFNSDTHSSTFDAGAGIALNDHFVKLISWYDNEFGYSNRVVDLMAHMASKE
Chain of Nucleotide-binding oligomerization domain-containing protein 2 (Q9HC29 whole entry, the tested form may be a part): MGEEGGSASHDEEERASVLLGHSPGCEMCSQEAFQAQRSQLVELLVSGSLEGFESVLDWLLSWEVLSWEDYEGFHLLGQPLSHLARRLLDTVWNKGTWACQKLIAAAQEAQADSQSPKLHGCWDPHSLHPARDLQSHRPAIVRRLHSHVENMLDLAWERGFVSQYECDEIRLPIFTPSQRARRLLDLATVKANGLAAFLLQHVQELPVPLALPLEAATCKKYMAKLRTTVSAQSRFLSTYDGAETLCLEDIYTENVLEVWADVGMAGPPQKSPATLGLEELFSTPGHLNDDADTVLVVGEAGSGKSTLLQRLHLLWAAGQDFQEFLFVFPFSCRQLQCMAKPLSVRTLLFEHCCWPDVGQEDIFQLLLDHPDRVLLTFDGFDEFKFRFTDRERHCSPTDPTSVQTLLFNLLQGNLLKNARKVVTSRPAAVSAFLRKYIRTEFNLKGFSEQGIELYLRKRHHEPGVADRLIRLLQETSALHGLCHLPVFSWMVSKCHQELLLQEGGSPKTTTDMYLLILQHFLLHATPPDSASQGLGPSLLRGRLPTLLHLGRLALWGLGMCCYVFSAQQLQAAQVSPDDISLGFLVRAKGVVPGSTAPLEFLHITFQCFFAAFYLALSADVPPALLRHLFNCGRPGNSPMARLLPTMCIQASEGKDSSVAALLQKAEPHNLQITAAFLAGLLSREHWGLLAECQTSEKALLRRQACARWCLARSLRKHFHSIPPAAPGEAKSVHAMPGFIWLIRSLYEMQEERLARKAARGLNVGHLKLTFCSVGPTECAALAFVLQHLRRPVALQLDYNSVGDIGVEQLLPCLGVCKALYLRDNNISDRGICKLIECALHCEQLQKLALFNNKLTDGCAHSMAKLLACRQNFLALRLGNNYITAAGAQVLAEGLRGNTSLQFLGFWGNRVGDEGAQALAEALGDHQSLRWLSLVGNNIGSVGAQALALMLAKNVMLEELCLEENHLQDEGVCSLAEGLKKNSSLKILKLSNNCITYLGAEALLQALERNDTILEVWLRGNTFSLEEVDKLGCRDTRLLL
Chain of Caspase-7 (P55210 24-198 limits assumed): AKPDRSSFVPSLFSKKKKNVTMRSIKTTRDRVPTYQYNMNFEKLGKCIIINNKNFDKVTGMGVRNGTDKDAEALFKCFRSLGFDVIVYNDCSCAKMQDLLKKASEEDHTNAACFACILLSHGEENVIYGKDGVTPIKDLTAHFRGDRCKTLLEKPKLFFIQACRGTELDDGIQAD
Chain of Caspase-7 (P55210 207-303 limits assumed): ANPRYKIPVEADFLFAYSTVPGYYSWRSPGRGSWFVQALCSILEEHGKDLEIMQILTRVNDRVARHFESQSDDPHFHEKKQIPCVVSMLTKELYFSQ

In the case of `COc1ccc(Cc2nc(N)nn2-c2ccccc2)cc1`, the IC50 [1] is reported as > 100 µM (inactive), the IC50 [2] is reported as > 100 µM (inactive) and the IC50 [3] is reported as > 100 µM (not active).

With `CCCNC(=O)c1ccc2c(O)c(O)c(-c3ccc(C)cc3)nc2c1` the AC50 (INS1) was 7.24 µM (active), the EC50 [4] was 9.71 µM (active) and the EC50 [5] was 8.86 µM (active). For the same molecule, the EC50 [6] was > 120 µM (not active), the EC50 (Caspase-3) was > 85.3 µM (inactive) and the IC50 (Exodeoxyribonuclease V) was > 119 µM (inactive). The EC50 (Caspase-7) was > 85.3 µM (inactive), the IC50 [7] was > 119 µM (inactive) and the IC50 (H9c2) was > 79 µM (inactive).

In the case of `CCc1ccc(CN(C)C(=O)CCc2nc3ccccc3n(-c3ccc(OC)cc3)c2=O)cc1`, the EC50 (HEK293 [8]) is reported as 12.7 µM (active), the IC50 (HEK293 [9]) is reported as > 20 µM (inactive) and the IC50 (HEK293 [10]) is reported as > 20 µM (inactive). For the same molecule, the IC50 (HEK293 [11]) was > 20 µM (inactive), the EC50 [12] was 16 µM (active) and the IC50 (HEK293 [13]) was 5.96 µM (active). The EC50 [14] was > 260 µM (inactive).

For `Cc1cc(C)nc(SCC(=O)c2ccc3c(c2)OCO3)n1`, the IC50 [1] was > 100 µM (inactive) and the IC50 [2] was > 100 µM (inactive).
